Measurements reported in the CheMixHub ionic liquid set.

Assay: xn = mol fraction of the nth substance listed

C1CN=C2CCCN2C1 + O=S(=O)([N-]S(=O)(=O)C(F)(F)F)C(F)(F)F.[Li+]
101 kPa, frequency 0 MHz, x1 = 0.8
Conditions	electrical conductivity [S/m]
338.15 K	0.0385
368.15 K	0.152

101 kPa, x1 = 0.8
Conditions	viscosity [mPa·s]
338.15 K	236
368.15 K	37.77

CCCC[P+](c1ccccc1)(c1ccccc1)c1ccccc1.[Br-] + O=S=O + OCCO
100 kPa
Conditions	viscosity [mPa·s]
303.15 K, x2 = 0.01371, x3 = 0.9622	22
313.15 K, x2 = 0.01059, x3 = 0.9653	18.4
323.15 K, x2 = 0.008625, x3 = 0.9672	15.5
333.15 K, x2 = 0.007346, x3 = 0.9684	12.9
343.15 K, x2 = 0.005964, x3 = 0.9698	11.5

CC[NH3+].O=[N+]([O-])[O-] + O=[N+]([O-])[O-].O=[N+]([O-])[O-].[Ca+2] + O
100 kPa
Conditions	electrical conductivity [S/m]	viscosity [mPa·s]
223 K, x2 = 0.05128, x3 = 0.1778	0.001	–
233 K, x2 = 0.05128, x3 = 0.1778	0.009	–
233 K, x2 = 0.09755, x3 = 0.3019	0.009	–
243 K, x2 = 0.05128, x3 = 0.1778	0.034	–
243 K, x2 = 0.09755, x3 = 0.3019	0.034	–
253 K, x2 = 0.05128, x3 = 0.1778	0.095	–
253 K, x2 = 0.09755, x3 = 0.3019	0.095	–
263 K, x2 = 0.05128, x3 = 0.1778	0.209	–
263 K, x2 = 0.09755, x3 = 0.3019	0.209	–
273 K, x2 = 0.05128, x3 = 0.1778	0.394	–
273 K, x2 = 0.09755, x3 = 0.3019	0.394	–
283 K, x2 = 0.05128, x3 = 0.1778	0.662	–
283 K, x2 = 0.09755, x3 = 0.3019	0.662	–
288.15 K, x2 = 0.05128, x3 = 0.1778	–	131.6
288.15 K, x2 = 0.09755, x3 = 0.3019	–	160.5
293 K, x2 = 0.05128, x3 = 0.1778	1.02	–
293 K, x2 = 0.09755, x3 = 0.3019	1.02	–
293.15 K, x2 = 0.05128, x3 = 0.1778	–	106.7
293.15 K, x2 = 0.09755, x3 = 0.3019	–	127.9
298.15 K, x2 = 0.05128, x3 = 0.1778	–	87.1
298.15 K, x2 = 0.09755, x3 = 0.3019	–	102.8
303 K, x2 = 0.05128, x3 = 0.1778	1.47	–
303 K, x2 = 0.09755, x3 = 0.3019	1.47	–
303.15 K, x2 = 0.05128, x3 = 0.1778	–	71.6
303.15 K, x2 = 0.09755, x3 = 0.3019	–	83.2
308.15 K, x2 = 0.05128, x3 = 0.1778	–	59.2
308.15 K, x2 = 0.09755, x3 = 0.3019	–	67.8
313 K, x2 = 0.05128, x3 = 0.1778	2.01	–
313 K, x2 = 0.09755, x3 = 0.3019	2.01	–
313.15 K, x2 = 0.05128, x3 = 0.1778	–	49.3
313.15 K, x2 = 0.09755, x3 = 0.3019	–	55.59
323 K, x2 = 0.05128, x3 = 0.1778	2.64	–
323 K, x2 = 0.09755, x3 = 0.3019	2.64	–
333 K, x2 = 0.05128, x3 = 0.1778	3.35	–
333 K, x2 = 0.09755, x3 = 0.3019	3.35	–
343 K, x2 = 0.05128, x3 = 0.1778	4.13	–
343 K, x2 = 0.09755, x3 = 0.3019	4.13	–
353 K, x2 = 0.05128, x3 = 0.1778	4.98	–
353 K, x2 = 0.09755, x3 = 0.3019	4.98	–
363 K, x2 = 0.05128, x3 = 0.1778	5.89	–
363 K, x2 = 0.09755, x3 = 0.3019	5.89	–
373 K, x2 = 0.05128, x3 = 0.1778	6.84	–
373 K, x2 = 0.09755, x3 = 0.3019	6.84	–

CCCCCCCCCCCCCCCC[N+](C)(C)C.[Br-] + OC1OC[C@@H](O)[C@H](O)[C@H]1O + O
viscosity [mPa·s], 100 kPa
Conditions	298.15 K	308.15 K	318.15 K
x1 = 7.21e-06, x2 = 0	0.896	0.742	0.617
x1 = 1.442e-05, x2 = 0	0.898	0.744	0.617
x1 = 2.162e-05, x2 = 0	0.9	0.745	0.617

C[P+](c1ccccc1)(c1ccccc1)c1ccccc1.[Br-] + OCC(O)CO
Conditions	electrical conductivity [S/m]	viscosity [mPa·s]
298 K, 101.3 kPa, x1 = 0.2	–	352
298.2 K, 101 kPa, x1 = 0.2	–	1894
322.36 K, 101 kPa, x2 = 0.75	–	272
327.54 K, 101 kPa, x2 = 0.75	–	204
328.15 K, 101.3 kPa, x2 = 0.6364	0.09	410
